For assay [1], the target named is Glutaminyl-peptide cyclotransferase-like protein (Homo sapiens, UniProt Q9NXS2). Description: QPCTL Enzymatic Activity Assay. How it is done: QPCTL activity was measured in a coupled-enzyme assay using the QPCTL substrate, glutamine-7-amido-4-methylcoumarin (H-Gln-AMC, Bachem), which is converted to pyroglutamyl-AMC by QPCTL. Pyroglutamyl-AMC is then converted to the fluorescent molecule, AMC, by incubation with the human enzyme pyroglutamyl peptidase-1. […] Final concentrations of DMSO and test compounds were 2% and 30-100 μM, respectively. Following the incubation, H-Gln-AMC substrate was diluted in assay buffer and added to each well for a final concentration of 10 μM. The reaction was incubated for 60 min at 37° C., before stopping it by boiling at 100° C. for 5 minutes and cooling the plate at 4° C. for 3 minutes. […] Following incubation, the fluorescence was measured with a plate reader using excitation at 380 nm and emission at 460 nm.
Glutaminyl-peptide cyclotransferase-like protein, sequence (Q9NXS2 whole entry): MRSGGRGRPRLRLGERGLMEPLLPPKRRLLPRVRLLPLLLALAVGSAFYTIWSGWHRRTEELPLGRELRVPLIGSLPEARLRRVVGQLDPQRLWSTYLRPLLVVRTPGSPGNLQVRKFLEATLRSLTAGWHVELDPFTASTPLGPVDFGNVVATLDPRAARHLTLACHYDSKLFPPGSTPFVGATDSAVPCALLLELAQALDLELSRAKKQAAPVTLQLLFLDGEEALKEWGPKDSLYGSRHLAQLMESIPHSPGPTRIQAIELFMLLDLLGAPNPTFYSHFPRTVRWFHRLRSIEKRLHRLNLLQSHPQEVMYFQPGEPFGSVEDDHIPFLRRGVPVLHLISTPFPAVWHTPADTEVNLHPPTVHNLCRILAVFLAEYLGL

Assay [2] addresses Glutaminyl-peptide cyclotransferase (Homo sapiens, UniProt Q16769). Put plainly: QPCT Enzymatic Activity Assay. How it is done:
QPCT activity was measured in a coupled-enzyme assay using the QPCT substrate, glutamine-7-amido-4-methylcoumarin (H-Gln-AMC, Bachem), which is converted to pyroglutamyl-AMC by QPCT. Pyroglutamyl-AMC is then converted to the fluorescent molecule, AMC, by incubation with the human enzyme pyroglutamyl peptidase-1 (PGPEP-1). […] Following the incubation, H-Gln-AMC substrate was diluted in assay buffer and added to each well for a final concentration of 10 μM. The reaction was incubated for 60 min at 37° C., before stopping it by boiling at 100° C. for 5 minutes and cooling the plate at 4° C. for 3 minutes. […] Following incubation, the fluorescence was measured with a plate reader using excitation at 380 nm and emission at 460 nm.

pIC50: −log10 of the molar value.

Glutaminyl-peptide cyclotransferase, sequence (Q16769 whole entry): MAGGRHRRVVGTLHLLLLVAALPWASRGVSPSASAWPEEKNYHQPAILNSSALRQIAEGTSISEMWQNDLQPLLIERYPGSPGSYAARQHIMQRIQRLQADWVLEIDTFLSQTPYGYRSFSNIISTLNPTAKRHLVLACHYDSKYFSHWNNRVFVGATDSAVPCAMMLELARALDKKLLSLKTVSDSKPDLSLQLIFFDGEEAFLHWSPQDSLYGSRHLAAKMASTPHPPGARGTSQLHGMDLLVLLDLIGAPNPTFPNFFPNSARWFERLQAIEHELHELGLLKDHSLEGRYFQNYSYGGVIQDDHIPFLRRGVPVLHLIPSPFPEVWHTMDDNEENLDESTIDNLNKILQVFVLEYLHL

Take `Cn1cncc1C1CCN(c2c(C#N)ccnc2-c2ccc(F)nc2)CC1` [US20240101544, Example 134]: the pIC50 in assay [1] and in assay [2] was > 7.00 in each case.

Usually pIC50 stands for −log10 of the IC50, conventionally taken in molar units. Lower therefore signals a large IC50.

Values taken from BindingDB's records for patent US20240101544 (2024).
